The structures appear in SMILES notation. Like-named read-outs stand apart in the source and are kept apart here.

For assay [1], the system named is PPARγ. Particulars: endogenous ligand of PPARγ; cited from earlier work.
The target of assay [2] is T1, PPARγ (Homo sapiens, UniProt P37231).
T1 sequence (P37231 1-505): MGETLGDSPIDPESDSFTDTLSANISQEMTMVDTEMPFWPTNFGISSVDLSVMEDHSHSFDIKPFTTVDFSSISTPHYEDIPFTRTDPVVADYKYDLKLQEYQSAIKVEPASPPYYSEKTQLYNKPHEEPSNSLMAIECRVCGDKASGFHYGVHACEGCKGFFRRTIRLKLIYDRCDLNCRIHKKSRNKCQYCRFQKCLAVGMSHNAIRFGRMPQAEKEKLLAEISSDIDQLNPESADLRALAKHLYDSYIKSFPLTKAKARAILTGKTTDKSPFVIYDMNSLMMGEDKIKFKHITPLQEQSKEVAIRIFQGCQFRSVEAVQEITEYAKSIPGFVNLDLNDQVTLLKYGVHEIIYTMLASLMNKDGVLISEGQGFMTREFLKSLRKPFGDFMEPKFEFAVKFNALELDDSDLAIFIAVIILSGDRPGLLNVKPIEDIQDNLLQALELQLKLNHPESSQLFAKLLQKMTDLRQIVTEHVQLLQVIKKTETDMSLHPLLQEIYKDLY
Particulars: for binding to immobilized PPARγ (SPR binding analysis): 50 μM and 100 μM analyte, 25 °C; for Kd: single cycle kinetics, heterogeneous ligand model.

What is called EC50 is the midpoint of the concentration-response curve. Regarding `CCCCC/C=C/C=C1/C(=O)C=C[C@@H]1C/C=C\CCCC(=O)O` [15Δ-PGJ2, 15-deoxy-delta-12,14-prostaglandin J2], the concentration for a half-maximal effect (EC50) in assay [1] was 2 µM. In assay [2], the “binding to immobilized PPARγ (SPR binding analysis)” value is “direct binding”. Also, the Kd came to 10 µM in assay [2] (read-out: Kd1) and 311 µM in assay [2] (read-out: Kd2).
Take `CCCCC(CC)COC(=O)c1ccccc1C(=O)OCC(CC)CCCC` (centres unmarked) [DEHP, di-(2-ethylhexyl)phthalate]: the “binding to immobilized PPARγ (SPR binding analysis)” value in assay [2] is “almost no detectable binding”.
